In patent publication US7465718B2, “Ansamycins having improved pharmacological and biological properties” (Conforma Therapeutics Corporation, priority 2002, dated 2008):

What was measured:
HSP90 (bis-ANS treated) = test: Biotin-geldanamycin competition binding, bis-ANS treated HSP90
Her-2 = test: HER2 inhibition assay (Her-2 degradation in MCF7 cells, flow cytometry); type: cell-based; conditions: read-out: HER-2 degradation (IC50 nM)
Description: MCF7 cells are seeded in 24 well plates at a density of approximately 30,000 cells/well and allowed to grow for 16 hours in DMEM supplemented with 10% FBS. Drug is then added at a concentration range of 100 uM to 0.01 uM. Cells are incubated for an additional 24. […] 10,000 events were collected per sample. A fluorescence histogram was generated and the mean fluorescence intensity (mfi) of each sample was determined using Cellquest software. The background was defined as the mfi generated from cells incubated with control IgG, and was subtracted from each sample stained with the HER-2/neu Ab. Percent degradation of Her-2 was calculated as follows: % Her-2 degradation=(mfi HER-2 sample)/(mfi HER-2 untreated cells)×100 Water Solubility Studies

[1] = Water solubility studies (salts dissolved in water at room temperature); type: physicochemical; conditions: thermodynamic from solid, HCl salt, read-out: Solubility of the HCl salt in H2O
Description: Various salts were prepared as described in the example section and dissolved in water at room temperature.

SMILES	melting point	IC50 (HSP90 (bis-ANS treated))	also measured
CCOP(=O)(NCCCCNC1=C2CC(C)CC(OC)C(O)C(C)/C=C(\C)C(OC(N)=O)C(OC)/C=C\C=C(/C)C(=O)NC(=CC1=O)C2=O)OCC (stereo not shown)	94.8 to 96.2 °C	–	–
COC1/C=C\C=C(/C)C(=O)NC2=CC(=O)C(NC(=O)NCc3ccc(F)cc3)=C(CC(C)CC(OC)C(O)C(C)/C=C(\C)C1OC(N)=O)C2=O (stereo not shown)	175 to 177 °C	–	–
COC1/C=C\C=C(/C)C(=O)NC2=CC(=O)C(NC(=O)c3snnc3C)=C(CC(C)CC(OC)C(O)C(C)/C=C(\C)C1OC(N)=O)C2=O (stereo not shown)	157 to 159 °C	–	–
COC1/C=C\C=C(/C)C(=O)NC2=CC(=O)C(NC(=O)c3c(C)noc3C)=C(CC(C)CC(OC)C(O)C(C)/C=C(\C)C1OC(N)=O)C2=O (stereo not shown)	190 to 192 °C	–	–
COC1/C=C\C=C(/C)C(=O)NC2=CC(=O)C(NC(=O)c3cc(C)nn3C)=C(CC(C)CC(OC)C(O)C(C)/C=C(\C)C1OC(N)=O)C2=O (stereo not shown)	193 to 195 °C	–	–
CO/N=C1/[C@@H](OC)C[C@H](C)CC2=C(NC(=O)c3ccccc3)C(=O)C=C(NC(=O)/C(C)=C/C=C\[C@H](OC)[C@@H](OC(N)=O)/C(C)=C/[C@@H]1C)C2=O (stereo in doubt) [Compound #1012]	–	6 µM	–
CCO/N=C1/[C@@H](OC)C[C@H](C)CC2=C(NC(=O)c3ccccc3)C(=O)C=C(NC(=O)/C(C)=C/C=C\[C@H](OC)[C@@H](OC(N)=O)/C(C)=C/[C@@H]1C)C2=O (stereo in doubt) [Compound #1013]	–	5.2 µM	–
COC1/C=C\C=C(/C)C(=O)NC2=CC(=O)C(c3ccccc3)=C(CC(C)CC(OC)C(O)C(C)/C=C(\C)C1OC(N)=O)C2=O (stereo not shown) [Compound #133, 17-phenyl-geldanamycin]	–	–	IC50 (Her-2): 25 nM; solubility [1]: < 10 µg/mL
COC1C=CC=C(C)C(=O)NC2=CC(=O)C(NCCCN3CCN(CCCNC4=C5CC(C)CC(OC)C(O)C(C)C=C(C)C(OC(N)=O)C(OC)C=CC=C(C)C(=O)NC(=CC4=O)C5=O)CC3)=C(CC(C)CC(OC)C(O)C(C)C=C(C)C1OC(N)=O)C2=O (stereo not shown) [Compound #207]	162 °C	–	IC50 (Her-2): 12 nM; solubility [1]: ≥ 13000 µg/mL
COc1ccccc1C1=C2CC(C)CC(OC)C(O)C(C)/C=C(\C)C(OC(N)=O)C(OC)/C=C\C=C(/C)C(=O)NC(=CC1=O)C2=O (stereo not shown) [Compound #212, 17-(2-methoxy-phenyl)-geldanamycin]	–	–	IC50 (Her-2): 10 nM; solubility [1]: < 10 µg/mL
COC1/C=C\C=C(/C)C(=O)NC2=CC(=O)C(c3cccs3)=C(CC(C)CC(OC)C(O)C(C)/C=C(\C)C1OC(N)=O)C2=O (stereo not shown) [Compound #232, 17-(2-thiophen)-geldanamycin]	–	–	IC50 (Her-2): 80 nM; solubility [1]: < 10 µg/mL
COC1/C=C\C=C(/C)C(=O)NC2=CC(=O)C(NC(=O)c3cc(C)nn3C(C)(C)C)=C(CC(C)CC(OC)C(O)C(C)/C=C(\C)C1OC(N)=O)C2=O (stereo not shown) [Compound #561, 17-(1-t-butyl-3-methyl-1H-pyrazole-5-carbonyl-amino)-geldanamycin]	216 to 218 °C	–	–
CO[C@H]1/C=C\C=C(/C)C(=O)NC2=CC(=O)C(NC(=O)c3ccccc3)=C(C[C@@H](C)C[C@H](OC)[C@@H](OC(=O)CBr)[C@@H](C)/C=C(\C)[C@@H]1OC(N)=O)C2=O [Compound #981]	–	5.5 µM	–
CO[C@H]1/C=C\C=C(/C)C(=O)NC2=CC(=O)C(NC(=O)c3ccccc3)=C(C[C@@H](C)C[C@H](OC)[C@@H](OC(=O)/C=C/c3cccs3)[C@@H](C)/C=C(\C)[C@@H]1OC(N)=O)C2=O [Compound #982]	–	5.5 µM	–
CO[C@H]1/C=C\C=C(/C)C(=O)NC2=CC(=O)C(NC(=O)c3ccccc3)=C(C[C@@H](C)C[C@H](OC)[C@@H](OC(=O)Cc3ccccc3)[C@@H](C)/C=C(\C)[C@@H]1OC(N)=O)C2=O [Compound #983]	–	7 µM	–
CO[C@H]1/C=C\C=C(/C)C(=O)NC2=CC(=O)C(NC(=O)c3ccccc3)=C(C[C@@H](C)C[C@H](OC)[C@@H](OC(=O)Cc3cccs3)[C@@H](C)/C=C(\C)[C@@H]1OC(N)=O)C2=O [Compound #984]	–	4.2 µM	–
CCCCCC(=O)O[C@@H]1[C@@H](OC)C[C@H](C)CC2=C(NC(=O)c3ccccc3)C(=O)C=C(NC(=O)/C(C)=C/C=C\[C@H](OC)[C@@H](OC(N)=O)/C(C)=C/[C@@H]1C)C2=O [Compound #985]	–	12 µM	–
